Assay results as given in publication PMC3259201 (European Journal of Medicinal Chemistry, 2011).
Entries after “also recorded” stand apart in the source; their conditions may differ.

These compounds were tested on HIV-1 NL4-3 strain (assay: HIV-1 infectivity assay, single cycle infection of TZM-bl cells). Details: wild-type HIV-1 NL4-3 strain.
Format: cell-based

SMILES	anti-HIV activity (in words)
CC1(C)Oc2cc(O)c3c(=O)c4ccccc4oc3c2[C@@H](OC(=O)[C@@]23CCC(C)(C(=O)O2)C3(C)C)[C@H]1OC(=O)[C@@]12CCC(C)(C(=O)O1)C2(C)C [Compound 9, 1R,2R-(-)-Dicamphanoyl-3,3-dimethyl-6-hydroxy-1,2-dihydropyrano[2,3-c]xanthen-7(1H)-one]	did not show notable activity or selectivity; also recorded: did not exhibit anti-HIV activity
COc1cc2c(c3oc4c(C)cccc4c(=O)c13)[C@@H](OC(=O)C13CCC(C)(C(=O)O1)C3(C)C)[C@@H](OC(=O)C13CCC(C)(C(=O)O1)C3(C)C)C(C)(C)O2 (stereo partly drawn) [Compound 10, 1R,2R-(-)-Dicamphanoyl-3,3,11-trimethyl-6-methoxy-1,2-dihydropyrano[2,3-c]xanthen-7(1H)-one]	almost inactive
COc1cccc2c(=O)c3c(OC)cc4c(c3oc12)[C@@H](OC(=O)[C@@]12CCC(C)(C(=O)O1)C2(C)C)[C@@H](OC(=O)[C@@]12CCC(C)(C(=O)O1)C2(C)C)C(C)(C)O4 [Compound 14, 1R,2R-(-)-Dicamphanoyl-3,3-dimethyl-6,11-dimethoxy-1,2-dihydropyrano[2,3-c]xanthen-7(1H)-one]	no detectable anti-HIV activity or selectivity
